Here are results for 21 molecules from ChEMBL document CHEMBL1133230, “1-Aminomethylisoquinoline-4-carboxylates as novel dipeptidylpeptidase IV inhibitors” (Bioorg Med Chem Lett, 2000).

This assay deals with Dipeptidyl peptidase 4 (Homo sapiens, UniProt P27487). The assay can be described thus: In vitro inhibition of Dipeptidylpeptidase IV from Caco-2 (human colon carcinoma) cells. The assay is classed as cell-based.

The structures appear in SMILES notation.

Sequence of Dipeptidyl peptidase 4 (P27487 whole entry): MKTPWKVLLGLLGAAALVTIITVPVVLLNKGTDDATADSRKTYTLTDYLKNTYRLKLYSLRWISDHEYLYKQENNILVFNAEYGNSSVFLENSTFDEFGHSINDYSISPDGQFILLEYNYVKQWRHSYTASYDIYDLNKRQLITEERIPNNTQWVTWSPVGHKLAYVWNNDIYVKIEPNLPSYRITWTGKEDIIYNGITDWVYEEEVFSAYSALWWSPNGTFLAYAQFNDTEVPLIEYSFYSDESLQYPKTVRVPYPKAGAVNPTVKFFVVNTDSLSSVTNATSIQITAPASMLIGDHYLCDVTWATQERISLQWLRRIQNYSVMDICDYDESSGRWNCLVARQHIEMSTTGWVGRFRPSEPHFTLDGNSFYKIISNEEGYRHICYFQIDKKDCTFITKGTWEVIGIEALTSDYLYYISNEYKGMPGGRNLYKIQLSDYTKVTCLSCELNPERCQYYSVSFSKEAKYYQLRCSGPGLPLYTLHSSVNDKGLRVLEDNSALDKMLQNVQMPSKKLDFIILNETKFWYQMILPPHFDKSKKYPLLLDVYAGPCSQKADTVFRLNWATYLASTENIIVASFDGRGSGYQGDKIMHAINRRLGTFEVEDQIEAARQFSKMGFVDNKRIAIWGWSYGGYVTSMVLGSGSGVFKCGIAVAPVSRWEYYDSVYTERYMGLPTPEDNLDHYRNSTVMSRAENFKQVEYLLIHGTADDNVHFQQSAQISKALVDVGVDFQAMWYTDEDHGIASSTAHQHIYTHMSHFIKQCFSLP

Take `CCOC(=O)CCc1cnc(CN)c2cc(OC)c(OC)cc12`: the IC50 (commonly the concentration that gives 50% inhibition) was found to be 52.6 µM.
`CCOC(=O)c1cnc(CCN)c2cc(OC)c(OC)cc12` gave a half-maximal inhibitory concentration (IC50) of 746 µM.
Molecule `CCOC(=O)/C=C/c1cnc(CN)c2cc(OC)c(OC)cc12` displayed an IC50 of 18 µM.
For the molecule `CCOC(=O)c1cnc(CN)c2c(OC)c(OC)c(OC)cc12`, the midpoint of inhibition, the IC50, lay at 1.1 µM.
The molecule `CCOC(=O)c1cnc(CN)c2cc(OC)c(OC)c(OC)c12` gave an IC50 of 18 µM.
In the case of `CCCNC(=O)c1cnc(CN)c2cc(OC)c(OC)cc12` it was 51.4 µM.
Molecule `COc1cc2c(C=O)cnc(CN)c2cc1OC` showed an IC50 of 277 µM.
For the molecule `CCCOc1cc2c(CN)ncc(C(=O)OCC)c2cc1OC`, the IC50 is 8.4 µM.
As for `CCOC(=O)c1cnc(CN(C)C)c2cc(OC)c(OC)cc12`, the IC50 is 948 µM.
The molecule `CCOC(=O)Cc1cnc(CN)c2cc(OC)c(OC)cc12` registered an IC50 of 17 µM.
The molecule `CCOC(=O)c1cnc(CN)c2ccc(OC)cc12` displayed a 50% inhibitory concentration (IC50) of 207 µM.
The result for `CCOC(=O)c1cnc(CN)c2cc(OC)c(OC)cc12` reads 3.4 µM; that for `CCOC(=O)c1cnc(CN)c2cc(O)c(OC)cc12`, 14 µM; that for `CCOC(=O)c1cnc(CN)c2cc(OC)c(OCC)cc12`, 4.7 µM.
Take `CCOC(=O)c1cnc(CN)c2c(OC)ccc(OC)c12`: it took 2.4 µM to reach half-maximal inhibition (IC50).
In the case of `CCOC(=O)Nc1cnc(CN)c2cc(OC)c(OC)cc12` it was 2.3 µM.
For `CCOC(=O)c1cnc(CNC)c2cc(OC)c(OC)cc12`, 731 µM corresponded to half-maximal inhibition (IC50).
The result for `CCOC(=O)c1cnc(CN)c2cc(OCC)c(OC)cc12` reads 6.7 µM; that for `COc1cc2c(CO)cnc(CN)c2cc1OC`, 31.8 µM; that for `COc1cc2c(C(N)=O)cnc(CN)c2cc1OC`, 170 µM.
The molecule `COc1cc2c(C(=O)O)cnc(CN)c2cc1OC` yielded an IC50 of 103 µM.
